Laboratory results taken from US9120820B2, “Fluorescent molecular probes for use in assays that measure test compound competitive binding with SAM-utilizing proteins” (CAYMAN CHEMICAL COMPANY, INCORPORATED, priority 2011, dated 2015).
Where two headings read alike, the source gives them in different places.

Tests used:
G9a = biological target: T1, G9a (Homo sapiens, UniProt Q96KQ7); experiment: Fluorescence polarization saturation binding of fluorescent probe to G9a
T1 construct: purchased Cayman 49010353
T1 sequence (Q96KQ7 1-1210): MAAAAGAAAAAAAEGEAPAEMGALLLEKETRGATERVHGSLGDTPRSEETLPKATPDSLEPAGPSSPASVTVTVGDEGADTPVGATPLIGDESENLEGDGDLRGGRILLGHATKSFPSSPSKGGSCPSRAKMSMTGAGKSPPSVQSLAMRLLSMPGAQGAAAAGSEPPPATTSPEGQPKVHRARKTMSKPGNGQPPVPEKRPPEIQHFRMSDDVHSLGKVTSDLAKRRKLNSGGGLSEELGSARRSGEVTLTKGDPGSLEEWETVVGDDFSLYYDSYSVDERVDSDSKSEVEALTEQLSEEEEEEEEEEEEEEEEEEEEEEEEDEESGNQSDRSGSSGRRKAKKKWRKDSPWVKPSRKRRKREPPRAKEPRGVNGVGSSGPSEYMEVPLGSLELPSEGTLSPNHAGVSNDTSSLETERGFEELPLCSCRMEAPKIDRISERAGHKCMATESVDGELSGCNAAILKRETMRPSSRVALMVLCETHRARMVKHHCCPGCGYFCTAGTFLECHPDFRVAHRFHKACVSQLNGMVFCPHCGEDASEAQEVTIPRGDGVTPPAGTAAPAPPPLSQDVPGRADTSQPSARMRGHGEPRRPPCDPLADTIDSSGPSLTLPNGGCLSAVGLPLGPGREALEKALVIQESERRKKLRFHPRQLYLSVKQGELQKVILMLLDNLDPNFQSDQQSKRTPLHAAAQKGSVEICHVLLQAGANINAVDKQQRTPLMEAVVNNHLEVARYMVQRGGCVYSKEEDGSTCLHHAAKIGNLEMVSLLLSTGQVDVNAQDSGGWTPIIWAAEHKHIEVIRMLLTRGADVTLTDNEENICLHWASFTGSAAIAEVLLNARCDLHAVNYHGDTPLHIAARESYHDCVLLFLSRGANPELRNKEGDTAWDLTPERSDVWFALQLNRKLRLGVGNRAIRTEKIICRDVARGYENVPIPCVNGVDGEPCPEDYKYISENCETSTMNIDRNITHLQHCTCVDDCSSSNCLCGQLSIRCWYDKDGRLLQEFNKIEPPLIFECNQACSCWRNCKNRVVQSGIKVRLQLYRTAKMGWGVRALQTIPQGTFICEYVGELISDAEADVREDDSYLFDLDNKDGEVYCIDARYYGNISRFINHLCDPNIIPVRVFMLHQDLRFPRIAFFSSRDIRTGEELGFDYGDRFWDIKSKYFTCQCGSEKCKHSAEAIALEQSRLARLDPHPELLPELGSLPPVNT
Protocol: Methods: The experiment was performed once, with two replicate wells for all methyltransferases per condition. The sole exception to this is NSD2 (see details below). The assay was performed in a ½ area, black, 96-well plate (Corning #3686) in a final volume of 30 μL. Methyltransferases (Table 1) were serially diluted two-fold in FP buffer (Cayman Catalog #600028) and 15 μL of a given dilution were added per well to the assay plate. Fifteen microliters of sinefungin probe 1A (10 nM) were added to each well, giving a final sinefungin probe 1A concentration of 5 nM. This concentration of sinefungin probe 1A was chosen because it had at least a 10-fold increase in fluorescence (excitation max 575 nm/emission max 615 nm) over background (buffer). The mixture was incubated in the dark at room temperature for 30 minutes and its fluorescence polarization was read using a BioTek Synergy 4.

SET7/9 = biological target: T2, SET7/9 (Homo sapiens, UniProt Q8WTS6); experiment: SET7/9 SAM-Screener high-throughput FP assay, Sinefungin Probe 1A displacement; format: binding; conditions: SET7/9 30 nM, FIG. 10
T2 construct: purchased Cayman 10320
T2 sequence (Q8WTS6 1-366): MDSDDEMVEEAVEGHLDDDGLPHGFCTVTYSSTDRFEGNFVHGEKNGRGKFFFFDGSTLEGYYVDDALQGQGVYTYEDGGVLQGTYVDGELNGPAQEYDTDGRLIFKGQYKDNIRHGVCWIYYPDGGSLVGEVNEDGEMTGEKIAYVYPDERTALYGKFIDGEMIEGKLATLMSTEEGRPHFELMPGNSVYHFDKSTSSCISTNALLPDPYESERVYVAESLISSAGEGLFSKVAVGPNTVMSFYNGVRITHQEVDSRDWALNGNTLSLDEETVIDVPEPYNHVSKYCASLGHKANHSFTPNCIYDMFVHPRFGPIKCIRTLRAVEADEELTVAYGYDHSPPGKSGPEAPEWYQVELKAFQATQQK
Protocol: Methods: A collection of 14,400 compounds from the Maybridge HitFinder collection of compounds was assayed for the displacement of Sinefungin Probe 1A from SET7/9 in a high-throughput manner using the SET7/9 SAM-Screener FP assay Cayman Catalog Item #600490). Thirty microliters of assay buffer (50 mM Tris pH 8.0, 50 mM KCl, 5 mM CHAPS, 2 mM DTT) was added to every well of a black 384-well polystyrene microtiter plate (Thermo-Fisher 364576). To every well, excluding control wells, was added one microliter of a DMSO solution containing a test compound. Control wells received either 1 μl DMSO or 1 μl of a sinefungin solution. The final concentration of sinefungin control or test compounds in the assay was 50 μM or 10 μM, respectively. To every well of the plate was added 10 μl of a SET7/9 solution to give a final assay concentration of 30 nM. After a 15-minute incubation at ambient temperature, 10 μl of Sinefungin Probe 1A solution was added to every well to give a final assay concentration of 10 nM in a total assay volume of 50 μl Samples were analyzed using a Biotek Synergy H4 plate reader in fluorescence polarization mode after a 30-minute incubation at ambient temperature in the dark. Data were analyzed using GeneData (v. 9.01). […]

## Nc1ncnc2c1ncn2[C@@H]1O[C@H](C[C@@H](N)CC[C@H](N)C(=O)O)[C@@H](OCc2cnnn2CCCCCCNC(=O)OC2CCN(C(=O)c3ccccc3C3=c4cc5c6c(c4Oc4c3cc3c7c4CCCN7CCC3)CCC[N+]=6CCC5)CC2)[C@H]1O [Sinefungin Probe 1A]
G9a; Example 8, G9a, 5 nM probe, experiment performed once, FIG. 2, read-out: Kd
  Kd: ~700 nM
G9a; G9a, saturation-binding format, mean ± SEM, read-out: Sinefungin Probe 1A Affinity
  Kd: 1800 ± 1000 nM
SET7/9
  increase of probe polarization by binding: > 120 mp
